According to patent US6846804B2 (priority 2000, dated 2005):

Legend:
B. cereus T spores = type: cell-based, Bacillus cereus T
spores of Bacillus = details: cited from earlier work

Substance: Sublancin
- halo (inhibition of spore germination/outgrowth) (B. cereus T spores): clear halo
- inhibition of outgrowth of spores (spores of Bacillus): highly active
